Experimental data as given in patent US11427615B2, “Peptide compound and application thereof, and composition containing peptide compound” (XDCEXPLORER (SHANGHAI) CO., LTD., priority 2017, dated 2022).
pEC50: −log10 of the molar value. Read-outs that look alike come from different tables or passages of the source. Non-standard residues stand in square brackets, D forms with d. Residues, ends and D or L forms follow the SMILES beside them. *: point of attachment. X5 = CCCCCCCCCCCC(=O)NCCOCCOCCOCCOCCOCCSSCCCC(=O)*; C18 diacid = O=C(O)CCCCCCCCCCCCCCCCC(=O)*; Oic = O=C(O)[C@@H]1C[C@@H]2CCCC[C@@H]2N1; PEG8 = NCCOCCOCCOCCOCCOCCOCCOCCOCCC(=O)O; Pro(4,4-F2) = O=C(O)[C@@H]1CC(F)(F)CN1; dAla(2-furyl) = N[C@H](Cc1ccco1)C(=O)O; Arg(Me) = CNC(=N)NCCC[C@H](N)C(=O)O; Palmitoyl = CCCCCCCCCCCCCCCC(=O)*; Hyp = O=C(O)[C@@H]1C[C@@H](O)CN1; AllylGly = C=CC[C@H](N)C(=O)O; Ac6c = NC1(C(=O)O)CCCCC1; AEEA = NCCOCCOCC(=O)O; azaGly = NNC(=O)O

Experiments:
[1] = molecular target: T1, human kiss1 receptor (GPR54) (Homo sapiens, UniProt Q969F8); test: Kiss1 receptor (GPR54) binding activity of agonists, FRET detection in NFAT-bla CHO-K1 cells; format: cell-based; settings: for pEC50: GPR54, measured according to the method of effect Embodiment 1, preliminary data, read-out: Preliminary measurement data (GPR54) EC50
T1 construct: host or cells: NFAT-bla CHO-K1 cells (Chinese hamster ovary), purchased recombinant cell line
Procedure: Effect Embodiment 1 Determination of Kiss1 Receptor (GPR54) Binding Activity of Kiss1 Receptor (GPR54) Agonist
The binding activity test of each compound from the above the embodiments with kiss1 receptor (GPR54) was performed by fluorescence energy resonance transfer (FRET) detection technology to detect EC50 values of polypeptides and peptide analogs. The cells used in this experiment were NFAT-bla CHO-K1 cells (k1720, invitrogen, thermosher) that express human kiss1 receptor (GPR54). The specific operations were as follows:
Day 1: Seeding Cells in Plate
1. Microscope (CKX41, OLYMPUS), object lens×4 times, ocular lens×10 times. The cells were ensured in a good condition.
2. Digesting the cells, adding 3 ml of 0.05% pancreatin into a culture dish; cells were placed in a 37° C., 5% CO2 incubator for 2 minutes (Thermo Fisher). After the cells became round under the microscope, 7 ml of culture medium was added. The formula of culture medium was as follows: DMEM 90%, dialzedfbS10, NEAA 0.1 mM, HEPES 25 mM, Penicillin 100 U/ml, Streptomycin 100 μm/ml, pH7.3. After blowing and stirring, it was transferred to 15 mL centrifuge tube (430790, Corning). Centrifuge at 1000 rpm for 5 min (5810R, Eppendorf) and the supernatant was discard.
3. Adding 7 mL of culture medium (DMEM+0.1% BSA), it was pipetting into single cell suspension, after counting with Bio-RAD counter, the cell density was adjusted to 312,500 cells/ml.
4. Cells were inoculated into 384 well plates at 32 μL per well, and the cell number was controlled at 10000 cells/well. 32 μl of culture medium was added into the blank control.
Day 2: Dosing and Data Analysis
1) The compound to be tested was prepared into 50 mM working solution with DMSO.
2) 40 μl of the working solution of the compound to be tested was added into column 2 of row A-H of U-shaped 96-well plate (3797, comings), and 60 μl of DMSO was added into column 3-11. 20 μl of compound solution was sucked from the second column to the third column with a multichannel pipette blowing and stirring evenly; 20 μl of compound solution was absorbed from the third column with a multichannel pipette, then added into the fourth column, blowed and stirred to mix well; the compound was serially diluted 4-fold to a total of 10 concentrations. Column 1 and column 12 of 96-well plates were supplemented with 40 μl DMSO.
2. Intermediate Plate Configuration
1) AU-shaped 96-well plate was used, 199 μL of culture medium (DMEM+0.1% BSA) was added to each well, 1 μL of diluted compound (or DMSO) was sucked from 1000× compound plate and added into the 96-well plate at the corresponding position, blowed and stirred to mix well.
2) Homemade positive compounds and compounds to be tested were added. The cell culture plate was took out from the incubator and cells state was observed under microscope. Diluted compound in the intermediate plate or DMSO was added into the cell, 8 μl per well.
3) Cells were cultured in 37° C. and 5% CO2 for 4 hours.
3. The Substrate was Added to Detect the Binding of the Drug to the Receptor
1) 1 μmol/L CCF-4AM solution and buffer solution B, C, D were equilibrated to room temperature. LiveBLAZER™-FRET B/G Loading Kit (K1095, thermo Fisher) containing CCF-4AM and solution B, solution C, solution D were also available from Invitrogen (K1157, thermo Fisher).
2) 6× loading solution was prepared: 6 μl of CCF-4AM dissolved solution A, 60 μl of solution b, 904 μl of solution c, and 30 μl of solution D were pipetted into EP tube, blowed and stirred to mix well.
3) 8 μl of the above-mentioned liquid was sucked with a multichannel pipette, added into a 96-well plate, and incubated for 2 hours at room temperature.
4) The PerkinElmer detector was used to detect the luminous signals of each hole. FI mode, λex=409 nm, λem1=460 nm, λem2=530 nm.
4. Data Processing Using Graphpad Prism 5 (GraphPad Software. Inc)
Effective rate %=(Signal−Min)/(Max−Min)×100%.

[2] = Plasma stability, LC-MS/MS; format: in vitro ADME; settings: rat plasma, 37° C., final concentration 500 ng/ml, time points 0 minutes, 1, 2 and 4 hours; calculated half-life; read-out: Rat plasma (T½ (h)) (converted)
Procedure: Effect Embodiment 2 Experimental Data on Plasma Stability of Some Compounds
1. Preparation of 50 mM Phosphate Buffer:
The 5.750 g Na2HPO4, 1.141 g NaH2PO4. and 4.095 g NaCl (Shanghai Titan) weighed was dissolved in 1000 mL ultrapure water and the pH was adjusted to 7.4 to give 50 mM phosphate buffer containing 70 mM NaCl. The prepared phosphoric acid buffer solution was stored in the refrigerator at 4° C. and was valid for one week.
2. Preparation of compound stock solution:
1). 5 mg/mL of test compound: 5 mg of compound was weighted and dissolved in 1 mL of DMSO.
2). 20 mM control: 2.728 mg of Fuka was dissolved in 0.5 mL of DMSO. 3.878 mg of benzalkonium bromide was dissolved in 0.5 mL of DMSO (Amresco).
3. Preparation of experimental plasma:
The frozen plasma (human: Shanghai wise chemistry; Rats and mice: Shanghai Sciple-Bikai; Dogs and monkeys: Suzhou Xishan Zhongke) were taken out of the −80° C. refrigerator, immediately placed in a 37° C. water bath, slightly shaken to melt it, then the thawed plasma was poured into a centrifuge tube, centrifuged at 3000 rpm for 8 min, and the supernatant was taken for experiments. The pH value of plasma was detected by a pH Meter & Sensor (METTLER TOLEDO). Only plasma with a pH value between 7.4 and 8 was used in the experiment. The plasma was placed on an ice bath for later use.
4. Preparation of administration solution:
1). 125 µg/ml test compound solution: 5 μL of 5 mg/mL test compound (see step 2) was added into 195 μL DMSO; 500 μM control solution: 20 mM control stock solution (see step 2) was added to 195 μL DMSO.
2). 0.5% BSA phosphate buffer solution: 0.05 g BSA was added to 10 mL phosphate buffer solution (see step 1);
3). 5 µg/ml of test compound administration solution: 40 μL of 125 μg/mL of test compound solution was added into 960 μL 0.5% BSA phosphate buffer solution, stirred and mixed evenly, and the administration solution was preheated in a 37° C. water bath for 5 minutes.
20 μM reference substance administration solution: 40 μL of 500 μM reference substance administration solution was added into 960 μL 0.5% BSA phosphate buffer solution, stirred and mixed evenly, and the administration solution was preheated in a 37° C. water bath for 5 minutes.
5. 10 μL of 5 μg/mL of the test compound and 20 μM of the control substance administration solution were respectively added to the wells set at different time points (0 minutes, 1 hour, 2 hours and 4 hours) on the 96-well plate, and the number of duplicate samples was 3.
6. 500 μL of ACN (IS) containing 5% FA was added to the well set at 0 minute hour, then 90 μL of plasma was added, after mixing, sealing film was pasted and placed at 4° C. (number of duplicate samples was 3).
7. 90 μL of plasma was added to the wells with set time points of 1 hour, 2 hours and 4 hours respectively, the number of duplicate samples was 3, and timing was started (the final concentration of the test compound was 500 ng/ml; The control was 2 μM).
9. All samples (0 minutes, 1 hour, 2 hours and 4 hours) at different time points on a 96-well plate were shaken for 10 minutes at 600 rpm/min on an oscillator (MTS 2/4, IKA), and then the samples were centrifuged for 15 minutes at 5594×g in a centrifuge (Multifuge×3R, thermo Fisher).
10. 150 μL of supernatant was taken from the centrifuged sample and sent to LC-MS/MS for analysis (conventional polypeptide LC-MS/MS analysis method).

T1 sequence (Q969F8 whole entry): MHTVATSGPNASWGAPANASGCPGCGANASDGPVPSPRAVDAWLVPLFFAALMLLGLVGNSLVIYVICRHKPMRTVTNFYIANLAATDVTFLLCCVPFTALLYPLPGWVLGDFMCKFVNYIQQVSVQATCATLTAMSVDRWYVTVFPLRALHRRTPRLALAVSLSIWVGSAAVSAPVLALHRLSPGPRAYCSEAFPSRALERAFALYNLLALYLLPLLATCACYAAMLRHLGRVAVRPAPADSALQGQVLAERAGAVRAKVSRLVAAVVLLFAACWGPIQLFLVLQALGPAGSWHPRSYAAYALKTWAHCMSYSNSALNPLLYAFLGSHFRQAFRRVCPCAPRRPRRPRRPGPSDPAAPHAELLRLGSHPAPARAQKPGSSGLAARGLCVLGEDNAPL

Work on `CCCCCCCCCCCCCCCC(=O)NCCOCCOCCOCCOCCOCCOCCOCCOCCC(=O)NCC(=O)NCC(=O)N[C@H](Cc1ccc(O)cc1)C(=O)N1C[C@H](O)C[C@H]1C(=O)N[C@@H](CC(N)=O)C(=O)N[C@H](C(=O)N[C@@H](Cc1ccccc1)C(=O)N[C@H](Cc1ccco1)C(=O)N[C@@H](CC(C)C)C(=O)N[C@@H](CCCNC(=N)NC)C(=O)N[C@@H](Cc1c[nH]c2ccccc12)C(N)=O)[C@@H](C)O` [YA-288, Palm-PEG 8-Gly-Gly-D-Tyr-Hyp-Asn-Thr-Phe-(D-2Fua)-Leu-Arg(Me)-Trp-NH2] ({Palmitoyl-PEG8}-GG[dY][Hyp]NTF[dAla(2-furyl)]L[Arg(Me)]W-NH2) yielded a pEC50 [1] of 10.74 and a half-life at 500 ng/ml [2] of 27.5 h.

In the case of `CNC(=N)NCCC[C@H](NC(=O)[C@H](CC(C)C)NC(=O)NNC(=O)[C@H](Cc1ccccc1)NC(=O)[C@@H](NC(=O)[C@H](CC(N)=O)NC(=O)[C@@H]1C[C@@H](O)CN1C(=O)[C@@H](Cc1ccc(O)cc1)NC(C)=O)[C@@H](C)O)C(=O)N[C@@H](Cc1c[nH]c2ccccc12)C(N)=O` [YA-3, Ac-(D-Tyr)-Hyp-Asn-Thr-Phe-azaGly-Leu-Arg(Me)-trp-NH2] (Ac-[dY][Hyp]NTF[azaGly]L[Arg(Me)]W-NH2), the pEC50 [1] was 10.52, the EC50 ([1]; NFAT-bla CHO-K1 cells that express human kiss1 receptor (GPR54), FRET, cells cultured with compound for 4 hours, read-out: GPR54 EC50/nM) was 0.03 nM and the half-life at 500 ng/ml [2] was 10.1 h.

With `CCCCCCCCCCCCCCCC(=O)NCCOCCOCCOCCOCCOCCOCCOCCOCCC(=O)NCC(=O)NCC(=O)N[C@H](Cc1ccc(O)cc1)C(=O)N1C[C@H](O)C[C@H]1C(=O)N[C@@H](CC(N)=O)C(=O)N[C@H](C(=O)N[C@@H](Cc1ccccc1)C(=O)NNC(=O)N[C@@H](CC(C)C)C(=O)N[C@@H](CCCNC(=N)NC)C(=O)N[C@@H](Cc1c[nH]c2ccccc12)C(N)=O)[C@@H](C)O` [YA-156, Palm-PEG8-Gly-Gly-(D-Tyr)-Hyp-Asn-Thr-Phe-azaGly-Leu-Arg(Me)-Trp-NH2] ({Palmitoyl-PEG8}-GG[dY][Hyp]NTF[azaGly]L[Arg(Me)]W-NH2) the pEC50 [1] was 10.35 and the half-life at 500 ng/ml [2] was 44.4 h.

In the case of `CCCCCCCCCCCCCCCC(=O)NCCOCCOCCOCCOCCOCCOCCOCCOCCC(=O)NCC(=O)NCC(=O)N[C@H](Cc1ccc(O)cc1)C(=O)N1C[C@H](O)C[C@H]1C(=O)N[C@@H](CC(N)=O)C(=O)N[C@H](C(=O)N[C@@H](Cc1ccccc1)C(=O)NC1(C(=O)N[C@@H](CC(C)C)C(=O)N[C@@H](CCCNC(=N)NC)C(=O)N[C@@H](Cc2c[nH]c3ccccc23)C(N)=O)CCCCC1)[C@@H](C)O` [YA-264, Palm-PEG 8-Gly-Gly-D-Tyr-Hyp-Asn-Thr-Phe-A6C-Leu-Arg(Me)-Trp-NH2] ({Palmitoyl-PEG8}-GG[dY][Hyp]NTF[Ac6c]L[Arg(Me)]W-NH2), the pEC50 [1] was 10.54 and the half-life at 500 ng/ml [2] was 13 h.

Compound `CCCCCCCCCCCCCCCC(=O)NCCOCCOCCOCCOCCOCCOCCOCCOCCC(=O)NCC(=O)NCC(=O)N[C@H](Cc1ccco1)C(=O)N1CC(F)(F)C[C@H]1C(=O)N[C@@H](CC(N)=O)C(=O)N[C@H](C(=O)N[C@@H](Cc1ccccc1)C(=O)NC1(C(=O)N[C@@H](CC(C)C)C(=O)N[C@@H](CCCNC(=N)NC)C(=O)N[C@@H](Cc2c[nH]c3ccccc23)C(N)=O)CCCCC1)[C@@H](C)O` [YA-220, Palm-PEG8-Gly-Gly-D-3Fua-Pro(diF)-Asn-Thr-Phe-A6c-Leu-Arg(Me)-Trp-NH2] ({Palmitoyl-PEG8}-GG[dAla(2-furyl)][Pro(4,4-F2)]NTF[Ac6c]L[Arg(Me)]W-NH2) has a pEC50 [1] of 10.64 and a half-life at 500 ng/ml [2] of 59 h.

Work on `CNC(=N)NCCC[C@H](NC(=O)[C@H](CC(C)C)NC(=O)C1(NC(=O)[C@H](Cc2ccccc2)NC(=O)[C@@H](NC(=O)[C@H](CC(N)=O)NC(=O)[C@@H]2C[C@@H](O)CN2C(=O)[C@@H](Cc2ccc(O)cc2)NC(C)=O)[C@@H](C)O)CCCCC1)C(=O)N[C@@H](Cc1c[nH]c2ccccc12)C(N)=O` [YA-175, Ac-D-Tyr-Hyp-Asn-Thr-Phe-A6c-Leu-Arg(Me)-Trp-NH2] (Ac-[dY][Hyp]NTF[Ac6c]L[Arg(Me)]W-NH2) yielded a pEC50 [1] of 9.88 and a half-life at 500 ng/ml [2] of 2.05 h.

For `CNC(=N)NCCC[C@H](NC(=O)[C@H](CC(C)C)NC(=O)NNC(=O)[C@H](Cc1ccccc1)NC(=O)[C@@H](NC(=O)[C@H](CC(N)=O)NC(=O)[C@@H]1C[C@@H]2CCCC[C@@H]2N1C(=O)[C@@H](Cc1ccc(O)cc1)NC(C)=O)[C@@H](C)O)C(=O)N[C@@H](Cc1c[nH]c2ccccc12)C(N)=O` [YA-230, Ac-D-Tyr-Oic-Asn-Thr-Phe-azaGly-Leu-Arg(Me)-Trp-NH2] (Ac-[dY][Oic]NTF[azaGly]L[Arg(Me)]W-NH2), the pEC50 [1] was 10.40 and the half-life at 500 ng/ml [2] was 3.64 h.

`CCCCCCCCCCCCCCCC(=O)NCCOCCOCCOCCOCCOCCOCCOCCOCCC(=O)N[C@H](Cc1ccc(O)cc1)C(=O)N1C[C@H](O)C[C@H]1C(=O)N[C@@H](CC(N)=O)C(=O)N[C@H](C(=O)N[C@@H](Cc1ccccc1)C(=O)NNC(=O)N[C@@H](CC(C)C)C(=O)N[C@@H](CCCNC(=N)NC)C(=O)N[C@@H](Cc1c[nH]c2ccccc12)C(N)=O)[C@@H](C)O` [YA-298, Palm-PEG8-D-Tyr-Hyp-Asn-Thr-Phe-azaGly-Leu-Arg(Me)-Trp-NH2] ({Palmitoyl-PEG8}-[dY][Hyp]NTF[azaGly]L[Arg(Me)]W-NH2) showed a pEC50 [1] of 10.80 and a half-life at 500 ng/ml [2] of 12.7 h.

In the case of `CCCCCCCCCCCC(=O)NCCOCCOCCOCCOCCOCCSSCCCC(=O)N[C@H](Cc1ccc(O)cc1)C(=O)N1C[C@H](O)C[C@H]1C(=O)N[C@@H](CC(N)=O)C(=O)N[C@H](C(=O)N[C@@H](Cc1ccccc1)C(=O)NNC(=O)N[C@@H](CC(C)C)C(=O)N[C@@H](CCCNC(=N)NC)C(=O)N[C@@H](Cc1c[nH]c2ccccc12)C(N)=O)[C@@H](C)O` [YA-324, Dodecanoyl-(NH-PEG5-CH2CH2S)-(4-thiol-butanoyl)-(D-Tyr)-Hyp-Asn-Thr-Phe-azaG-Leu-Arg(Me)-Trp-NH2] (X5-[dY][Hyp]NTF[azaGly]L[Arg(Me)]W-NH2), the pEC50 [1] was 11.15 and the half-life at 500 ng/ml [2] was 0.29 h.

Compound `CNC(=N)NCCC[C@H](NC(=O)[C@H](CC(C)C)NC(=O)NNC(=O)[C@H](Cc1ccccc1)NC(=O)[C@@H](NC(=O)[C@H](CC(N)=O)NC(=O)[C@@H]1C[C@@H](O)CN1C(=O)[C@@H](Cc1ccc(O)cc1)NC(=O)COCCOCCNC(=O)COCCOCCNC(=O)CCCCCCCCCCCCCCCCC(=O)O)[C@@H](C)O)C(=O)N[C@@H](Cc1c[nH]c2ccccc12)C(N)=O` [YA-273, C 18 diacid-OEG-OEG-D-Tyr-Hyp-Asn-Thr-Phe-azaGly-Leu-Arg(Me)-Trp-NH2] ({C18 diacid-AEEA-AEEA}-[dY][Hyp]NTF[azaGly]L[Arg(Me)]W-NH2) has a pEC50 [1] of 10.30 and a half-life at 500 ng/ml [2] of 166 h.

Work on `CNC(=N)NCCC[C@H](NC(=O)[C@H](CC(C)C)NC(=O)NNC(=O)[C@H](Cc1ccccc1)NC(=O)[C@@H](NC(=O)[C@H](CC(N)=O)NC(=O)C1(NC(=O)[C@@H](Cc2ccc(O)cc2)NC(C)=O)CCCCC1)[C@@H](C)O)C(=O)N[C@@H](Cc1c[nH]c2ccccc12)C(N)=O` [YA-172, Ac-D-Tyr-A6c-Asn-Thr-Phe-azaGly-Leu-Arg(Me)-Trp-NH2] (Ac-[dY][Ac6c]NTF[azaGly]L[Arg(Me)]W-NH2) yielded a half-life at 500 ng/ml [2] of 9.42 h.

With `C=CC[C@H](NC(=O)[C@H](Cc1ccccc1)NC(=O)[C@@H](NC(=O)[C@H](CC(N)=O)NC(=O)[C@@H]1C[C@@H](O)CN1C(=O)[C@@H](Cc1ccc(O)cc1)NC(C)=O)[C@@H](C)O)C(=O)N[C@@H](CC(C)C)C(=O)N[C@@H](CCCNC(=N)NC)C(=O)N[C@@H](Cc1c[nH]c2ccccc12)C(N)=O` [YA-350, Ac-(D-Tyr)-Hyp-Asn-Thr-Phe-Alg-Leu-Arg(Me)-Trp-NH2] (Ac-[dY][Hyp]NTF[AllylGly]L[Arg(Me)]W-NH2) the half-life at 500 ng/ml [2] was 0.22 h.
